Ends that are not written are not given here.
Columns and labels:
[1] = Circular dichroism spectroscopy with DMPC/DMPG (3:1) large unilamellar vesicles; type: physicochemical; conditions: CD, peptide 30 µM, DMPC/DMPG (3:1) LUVs 1 mg/mL in PBS pH 7.3
Method: (§1) The far-ultraviolet circular dichroism (CD) spectra were recorded as described. Phylloseptins-S (30 µM) were solubilized either in 80 mM sodium dodecyl sulfate (SDS) or in phosphate-buffered saline (PBS: 10 mM phosphate, pH 7.3) containing 1 mg/mL of large unilamellar vesicles (LUVs) of 1,2-dimyristoyl-sn-glycero-3-phosphocholine (DMPC) and 1,2-dimyristoyl-sn-glycero-3-phosphoglycerol (DMPG) (3∶1 mol/mol). DMPC and DMPG were purchased from Avanti Polar Lipids, Inc. Each spectrum was the average of four scans. CD measurements are reported as Δ/n, where Δ is the dichroic increment and n is the number of residues in the peptide.
(§2) Figure 6 Circular dichroism spectra of synthetic phylloseptins-S (30 µM). (A) DMPC/DMPG (3∶1) large unilamellar vesicles in PBS (1 mg/mL). (B) 80 mM SDS. CD measurements are reported as the dichroic increment (Δε) per residue.

[2] = Circular dichroism spectroscopy in SDS micelles; type: physicochemical; conditions: CD, peptide 30 µM in 80 mM SDS
Method: as §1, §2

S. aureus ATCC 25923 = conditions: LB medium (pH 7), absorbance at 630 nm, 96-well plates; average of three independent experiments in triplicates
Method: (§3) The effect of phylloseptins-S was evaluated against several bacterial strains and yeasts (Table 2). Bacteria were cultured in Luria-Bertani broth (LB), whereas yeasts were cultured in Yeast Peptone Dextrose medium (YPD), and minimal inhibitory concentrations (MICs) were determined by measuring the absorbance at 630 nm in 96-well microtitration plates, as described previously. Leishmanicidal activity of phylloseptins-S was also examined against promastigotes of different Leishmania species: Leishmania infantum (strain MHOM/MA/67/ITMAP-263), L. major (MHOM/SU/73/5-ASKH) and L. braziliensis (MHOM/BR/75/M2904). Culture of promastigotes and determination of the growth inhibition were performed as previously described, [22], [23].
(§4) The antimicrobial activity of synthetic PLS-S1 to -S5 was assayed in LB medium (pH 7) against several Gram-negative and Gram-positive bacteria, and multi-drug resistant S. aureus strains. […] The antiparasitic activity of PLSs was also determined against three Leishmania species (L. infantum, L. major, and L. braziliensis). […] Because PLS-S3 contains histidines as basic residues and that approximately only 11% of these residues are positively charged at pH 7, we have evaluated the antibacterial activity at pH 5 at which His residues are predominantly positively charged (∼91%).

S. aureus ATCC BAA-44 = conditions: multidrug resistant strain; LB medium (pH 7), absorbance at 630 nm; average of three independent experiments in triplicates
Method: as §3, §4

A. baumannii ATCC 19606 = conditions: LB medium (pH 7), absorbance at 630 nm; average of three independent experiments in triplicates
Method: as §3, §4

S. pyogenes ATCC 19615 = conditions: LB medium (pH 7), absorbance at 630 nm; average of three independent experiments in triplicates
Method: as §3, §4

P. aeruginosa ATCC 27853 = conditions: LB medium (pH 7), absorbance at 630 nm; average of three independent experiments in triplicates
Method: as §3, §4

S. aureus ST1065 = conditions: LB medium (pH 7), absorbance at 630 nm; average of three independent experiments in triplicates
Method: as §3, §4

S. aureus ATCC 43300 = conditions: strain resistant to methicillin and oxacillin; LB medium (pH 7), absorbance at 630 nm; average of three independent experiments in triplicates
Method: as §3, §4

E. faecalis ATCC 29212 = conditions: LB medium (pH 7), absorbance at 630 nm; average of three independent experiments in triplicates
Method: as §3, §4

E. coli ATCC 25922 = conditions: for MIC: ATCC 25922, pH 7
Method: as §3, §4

E. coli ML-35p = conditions: LB medium (pH 7), absorbance at 630 nm; average of three independent experiments in triplicates
Method: as §3, §4

K. pneumoniae ATCC 13883 = conditions: LB medium (pH 7), absorbance at 630 nm; average of three independent experiments in triplicates
Method: as §3, §4

S. cerevisiae = type: cell-based
Method: as §3

[3] = system: C. parapsilosis ATCC 22019; type: cell-based
Method: as §3

Substance	helix content [1] [%]	helix content [2] [%]	MIC (S. aureus ATCC 25923) [µM]	MIC (S. aureus ATCC BAA-44) [µM]	MIC (A. baumannii ATCC 19606) [µM]	MIC (S. pyogenes ATCC 19615) [µM]	MIC (P. aeruginosa ATCC 27853) [µM]	MIC (S. aureus ST1065) [µM]	MIC (S. aureus ATCC 43300) [µM]	MIC (E. faecalis ATCC 29212) [µM]	MIC at pH 5 (E. coli ATCC 25922; ATCC 25922, pH 5) [µM]	MIC (E. coli ATCC 25922) [µM]	MIC (E. coli ML-35p) [µM]	MIC (K. pneumoniae ATCC 13883) [µM]	MIC (S. cerevisiae) [µM]	MIC [3] [µM]
FLSLIPHIVSGVASLAIHF-NH2 [PLS-S3]	65	44	>200	>200	>200	12.5	>200	>200	>200	>200	50	>200	>200	>200	>200	>200
LLGMIPVAISAISALSKL-NH2 [PLS-S5]	60	20	25	>100	–	–	>100	>100	>100	100	–	>100	>100	–	–	>100

From article PMC3742671, “Structure, Antimicrobial Activities and Mode of Interaction with Membranes of Bovel Phylloseptins from the Painted-Belly Leaf Frog, Phyllomedusa sauvagii” (PLoS ONE, 2013)
